From US20220349015A1, “DIAGNOSIS AND TREATMENT OF THYROID CANCER” (Beth Israel Deaconess Medical Center, Inc., priority 2019, published 2022) come the findings set out here.

Bounds are passed on as bounds.

The test system of series [1] is Xloc13 lincRNA expression in BRAF^V600E PTC-derived cells. In words: qPCR of Xloc13 expression in BRAF^V600E PTC-derived cells. The series is classed as cell-based, human. The conditions noted are these: metastatic or non-metastatic PTC-derived cells; vs. vehicle. On the technique in general: In qPCR the cycle at which signal appears reflects the starting amount.
Series [2] has as its system TPO and TTF-1 mRNA in BRAF^V600E PTC-derived cells. The experiment in a line: qPCR of iodide metabolism genes (TPO, TTF-1 mRNA) in PTC-derived cells.
For series [3], the system named is BRAF^WT/V600E PTC-derived cell line xenograft tumors. The experiment in a line: Xenograft mouse model of human invasive heterozygous BRAF^WT/V600E PTC-derived cell line. A general note: Xenograft models place foreign cells or tissue in a host animal.
For series [4], the system named is human invasive heterozygous BRAF^WT/V600E PTC-derived cell line. In words: Invasion of human invasive BRAF^WT/V600E PTC-derived cell line. Format: cell-based.
In series [5] the test system is BRAF^V600E PTC-derived cells. In words: 123-Iodide uptake in vitro. The conditions noted are these: Xloc13 lincRNA; synergizes with vemurafenib.
Where [6] appears, read: Xloc13+ BRAF^WT/V600E PTC-derived cells.

Consider `CCCS(=O)(=O)Nc1ccc(F)c(C(=O)c2c[nH]c3ncc(-c4ccc(Cl)cc4)cc23)c1F` [vemurafenib, reference compound], for which the “rescue of Xloc13 expression (qPCR)” value in series [1] was 4-6 fold-changes. Besides, the “TPO and TTF-1 mRNA levels rise” value in series [2] (cells engineered to over-express Xloc13 (Xloc13+) during treatment with vemurafenib) is on record as approximately 3.5 fold-changes.
Turning to “Xloc13 lincRNA: thyroid-specific long intergenic non-coding RNA (2.257 kb, SEQ ID NO: 1), over-expressed from a vector in PTC-derived cells”, in series [3] (setting [6]), the EZH2 protein levels result is “transcriptionally down-regulated EZH2 protein levels” and the “H3K27me3 (EZH2 effector)” value is “reducing its effector H3K27me3”. In series [3] (Xloc13+ cells under vemurafenib therapy vs. backbone vector control), this compound gave a decrease in growth of more than 3 fold. Besides, the “123-Iodide uptake in xenograft tumors (nano-SPECT imaging)” value in series [3] (Xloc13+ tumors of vemurafenib-treated mice vs. vehicle-treated backbone vector controls) is “significantly crucial for the recovery”. In addition, the invasion result in series [4] (Xloc13 lincRNA overexpression alone) is listed as “inhibited invasion”. In addition, the invasion result in series [4] (Xloc13 lincRNA overexpression plus vemurafenib) was “inhibits invasion”. Further, in series [5], the “123-iodide uptake/organification in vitro” value is recorded as “crucial for the rescue”. Further, in series [2] (Xloc13 lincRNA over-expression in PTC-derived cell lines), the “TPO mRNA expression levels” value is “up-regulates TPO mRNA expression levels”.
